Tests used:
[1] = target: WT BET bromodomains (BD1 and BD2 of BRD2, BRD3 and BRD4); assay: competitive AlphaLISA (Bio-JQ1 displacement); format: binding, human; conditions: mean and SD of all somatic bromodomains; active enantiomer concentration
BRD2 BD1 WT = BRD2 BD1 WT (Homo sapiens, UniProt P25440); assay: ITC; format: binding; conditions: ITC
[2] = target: WT somatic BET bromodomains; assay: ITC; conditions: mean and SD of all somatic bromodomains
BRD2 BD2 L/V [3] = target: T1, BRD2 BD2 L/V (Homo sapiens, UniProt P25440, L383V); assay: ITC; format: binding
BRD2: LV/LV = BRD2: LV/LV (Homo sapiens, UniProt P25440, L110V/L383V); assay: ITC, BRD2 tandem construct
BRD4 BD2 L/V [4] = target: T2, BRD4 BD2 L/V (Homo sapiens, UniProt O60885, L387V); assay: ITC; format: binding
Plasma Half-life = conditions: BALB/c, mouse, pH 7.4
BRD2: WT/LV = BRD2: WT/LV (Homo sapiens, UniProt P25440, L383V); assay: ITC, BRD2 tandem construct
BRD2 BD1 L/V [5] = target: T3, BRD2 BD1 L/V (Homo sapiens, UniProt P25440, L110V); assay: ITC; format: binding
[6] = tested on: L/V somatic BET bromodomains; assay: ITC; conditions: L/V minus WT
BRDT BD2 WT = BRDT BD2 WT (Homo sapiens, UniProt Q58F21); assay: competitive AlphaLISA; format: binding
BRD2: LV/WT = BRD2: LV/WT (Homo sapiens, UniProt P25440, L110V); assay: ITC, BRD2 tandem construct
BRD4 BD1 WT [7] = target: T4, BRD4 BD1 WT (Homo sapiens, UniProt O60885); assay: competitive AlphaLISA; format: binding; conditions: AlphaLISA pIC50 Value BRD4 BD1 WT
BRDT BD1 L/V = BRDT BD1 L/V (Homo sapiens, UniProt Q58F21, L63V); assay: competitive AlphaLISA; format: binding
BRD3 BD1 L/V [8] = target: T5, BRD3 BD1 L/V (Homo sapiens, UniProt Q15059, L70V); assay: ITC; format: binding
BRD3 BD1 WT [9] = target: T6, BRD3 BD1 WT (Homo sapiens, UniProt Q15059); assay: competitive AlphaLISA; format: binding
BRD3 BD2 WT [10] = target: T7, BRD3 BD2 WT (Homo sapiens, UniProt Q15059); assay: ITC; format: binding
[11] = tested on: L/V BET bromodomains (BD1 and BD2 of BRD2, BRD3 and BRD4); assay: competitive AlphaLISA (Bio-JQ1 displacement); format: binding, human; conditions: L/V minus WT
BRD2 BD2 L/V [12] = target: T1, BRD2 BD2 L/V; assay: competitive AlphaLISA; format: binding
in vitro = conditions: PAMPA, pH 7.4
BRD2: WT/WT = BRD2: WT/WT (Homo sapiens, UniProt P25440); assay: ITC, BRD2 tandem construct
BRD3 BD2 L/V [13] = target: T8, BRD3 BD2 L/V (Homo sapiens, UniProt Q15059, L345V); assay: ITC; format: binding
Intrinsic Clearance = conditions: mouse liver microsomes
BRD4 BD2 WT = BRD4 BD2 WT (Homo sapiens, UniProt O60885); assay: ITC; format: binding
BRD3 BD2 WT [14] = target: T7, BRD3 BD2 WT; assay: competitive AlphaLISA; format: binding
BRD4 BD1 L/V [15] = target: T9, BRD4 BD1 L/V (Homo sapiens, UniProt O60885, L94V); assay: competitive AlphaLISA; format: binding; conditions: AlphaLISA pIC50 Value BRD4 BD1 L/V
BRDT BD1 WT = BRDT BD1 WT (Homo sapiens, UniProt Q58F21); assay: competitive AlphaLISA; format: binding
BRD3 BD2 L/V [16] = target: T8, BRD3 BD2 L/V; assay: competitive AlphaLISA; format: binding
BRD4 BD1 L/V [17] = target: T9, BRD4 BD1 L/V; assay: ITC; format: binding; conditions: ITC
BRD4 BD1 WT [18] = target: T4, BRD4 BD1 WT; assay: ITC; format: binding
BRD4 BD2 L/V [19] = target: T2, BRD4 BD2 L/V; assay: competitive AlphaLISA; format: binding
BRD2 BD2 WT [20] = target: T10, BRD2 BD2 WT (Homo sapiens, UniProt P25440); assay: competitive AlphaLISA; format: binding
BRD2 BD2 WT [21] = target: T10, BRD2 BD2 WT; assay: ITC; format: binding
BRD2 BD1 L/V [22] = target: T3, BRD2 BD1 L/V; assay: competitive AlphaLISA; format: binding
BRD3 BD1 L/V [23] = target: T5, BRD3 BD1 L/V; assay: competitive AlphaLISA; format: binding
BRD3 BD1 WT [24] = target: T6, BRD3 BD1 WT; assay: ITC; format: binding

T6 sequence (Q15059 24-144): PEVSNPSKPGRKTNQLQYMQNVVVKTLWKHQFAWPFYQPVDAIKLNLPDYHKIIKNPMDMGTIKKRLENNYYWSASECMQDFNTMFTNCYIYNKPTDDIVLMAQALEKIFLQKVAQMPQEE
T10 sequence (P25440 344-455): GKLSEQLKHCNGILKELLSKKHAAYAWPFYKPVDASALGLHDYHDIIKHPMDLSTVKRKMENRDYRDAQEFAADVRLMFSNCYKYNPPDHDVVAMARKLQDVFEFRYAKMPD
T8 sequence (Q15059 306-416 L345V limits assumed): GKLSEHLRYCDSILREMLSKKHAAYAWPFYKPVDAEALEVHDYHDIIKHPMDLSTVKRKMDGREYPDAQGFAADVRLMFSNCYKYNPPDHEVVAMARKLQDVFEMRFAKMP
T7 sequence (Q15059 306-416): as the sequence (Q15059 306-416 L345V limits assumed) above, with V40L counted along it
T5 sequence (Q15059 24-144 L70V limits assumed): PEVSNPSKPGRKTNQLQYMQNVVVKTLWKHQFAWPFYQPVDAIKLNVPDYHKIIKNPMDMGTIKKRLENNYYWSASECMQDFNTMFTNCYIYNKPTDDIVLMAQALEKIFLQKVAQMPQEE
T3 sequence (P25440 71-176 L110V limits assumed): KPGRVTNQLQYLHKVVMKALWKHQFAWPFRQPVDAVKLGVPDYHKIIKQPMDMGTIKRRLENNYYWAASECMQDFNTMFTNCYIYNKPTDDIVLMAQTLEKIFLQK
T1 sequence (P25440 344-455 L383V): as the sequence (P25440 344-455) above, with L40V counted along it
BRD2: LV/WT, sequence (P25440 73-455 L110V limits assumed): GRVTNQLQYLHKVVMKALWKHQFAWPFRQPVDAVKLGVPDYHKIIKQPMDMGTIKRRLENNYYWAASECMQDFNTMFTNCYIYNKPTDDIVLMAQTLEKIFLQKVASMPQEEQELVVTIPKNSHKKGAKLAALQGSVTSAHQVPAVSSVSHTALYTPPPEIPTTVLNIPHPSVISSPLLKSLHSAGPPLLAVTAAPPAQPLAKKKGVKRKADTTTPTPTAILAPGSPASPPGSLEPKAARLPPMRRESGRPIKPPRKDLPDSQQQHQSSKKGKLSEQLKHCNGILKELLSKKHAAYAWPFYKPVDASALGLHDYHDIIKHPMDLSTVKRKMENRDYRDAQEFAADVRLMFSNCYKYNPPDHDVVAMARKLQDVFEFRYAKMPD
BRD2: LV/LV, sequence (P25440 73-455 L110V/L383V limits assumed): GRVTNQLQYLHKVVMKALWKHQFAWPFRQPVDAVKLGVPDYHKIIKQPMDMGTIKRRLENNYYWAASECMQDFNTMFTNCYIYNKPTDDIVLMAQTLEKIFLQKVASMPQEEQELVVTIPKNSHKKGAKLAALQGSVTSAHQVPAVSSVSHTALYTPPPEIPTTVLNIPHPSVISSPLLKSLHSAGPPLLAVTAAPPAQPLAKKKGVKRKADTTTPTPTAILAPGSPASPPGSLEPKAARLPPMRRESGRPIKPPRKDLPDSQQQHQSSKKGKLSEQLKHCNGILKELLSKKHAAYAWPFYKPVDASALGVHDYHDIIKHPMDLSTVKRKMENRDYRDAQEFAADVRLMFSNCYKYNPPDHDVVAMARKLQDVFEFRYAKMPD
BRD2 BD1 WT, sequence (P25440 71-176): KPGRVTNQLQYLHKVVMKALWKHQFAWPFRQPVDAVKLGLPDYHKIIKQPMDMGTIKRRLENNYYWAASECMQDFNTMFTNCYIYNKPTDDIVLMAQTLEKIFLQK
BRD2: WT/LV, sequence (P25440 73-455 L383V): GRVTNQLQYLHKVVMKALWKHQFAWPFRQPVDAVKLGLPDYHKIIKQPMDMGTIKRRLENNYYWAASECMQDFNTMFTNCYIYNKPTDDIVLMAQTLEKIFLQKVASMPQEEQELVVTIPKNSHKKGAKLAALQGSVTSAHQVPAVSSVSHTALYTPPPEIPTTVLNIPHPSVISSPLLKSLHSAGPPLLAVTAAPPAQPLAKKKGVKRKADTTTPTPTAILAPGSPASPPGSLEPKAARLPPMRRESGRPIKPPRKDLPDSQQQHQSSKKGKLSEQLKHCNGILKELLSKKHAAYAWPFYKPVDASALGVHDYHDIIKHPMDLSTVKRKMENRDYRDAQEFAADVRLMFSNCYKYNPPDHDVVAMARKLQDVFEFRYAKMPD
BRD2: WT/WT, sequence (P25440 73-455): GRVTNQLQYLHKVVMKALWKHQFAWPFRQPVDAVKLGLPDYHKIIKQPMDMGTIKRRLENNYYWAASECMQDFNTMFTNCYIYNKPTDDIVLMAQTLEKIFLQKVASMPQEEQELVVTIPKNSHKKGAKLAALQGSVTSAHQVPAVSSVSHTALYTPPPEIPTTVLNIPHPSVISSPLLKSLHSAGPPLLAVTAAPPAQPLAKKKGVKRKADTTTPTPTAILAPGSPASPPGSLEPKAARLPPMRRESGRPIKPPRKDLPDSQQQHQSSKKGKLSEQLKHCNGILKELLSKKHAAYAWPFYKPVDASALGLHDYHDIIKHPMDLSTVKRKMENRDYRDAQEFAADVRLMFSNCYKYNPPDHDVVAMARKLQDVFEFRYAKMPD

With `CC[C@@H](C(=O)OC)[C@@H]1N=C(c2ccc(Cl)cc2)c2cc(OC)ccc2-n2c(C)nnc21` (relative stereo) [Compound 4] as the compound, how does the “AlphaLISA pIC50 ± SD WT” value [1] read?
The value was 5.0 ± 0.1.

And the “ΔH BRD2 BD1 WT” value (BRD2 BD1 WT)?
The value was -5.3 kcal/mol.

And the “ITC pKd ± SD WT” value [2]?
Its value is 5.1 ± 0.5.

And the Kd (BRD2 BD2 L/V [3])?
The Kd was 50 nM.

What about the “ΔH BRD2 BD2 L/V” value (BRD2 BD2 L/V [3]; ITC) of the same compound?
The value was -8.5 kcal/mol.

And the Kd (BRD2: LV/LV)?
Its Kd is 140 ± 10 nM.

What about the Kd (BRD4 BD2 L/V [4]) of the same compound?
Its Kd is 330 nM.

What about the “ΔH BRD4 BD2 L/V” value (BRD4 BD2 L/V [4]; ITC) of the same compound?
Its value is -7.9 kcal/mol.

And the half-life at 50 µM (Plasma Half-life)?
Its half-life at 50 µM is over 3 h.

And the Kd (BRD2: WT/LV)?
Its Kd is 620 ± 110 nM.

What about the Kd (BRD2 BD1 L/V [5]) of the same compound?
The Kd was 240 nM.

And the “ΔH BRD2 BD1 L/V” value (BRD2 BD1 L/V [5]; ITC)?
Its value is -12.6 kcal/mol.

What about the “ITC pKd ± SD Δ” value [6] of the same compound?
The value was 1.8 ± 0.4.

And the IC50 (BRDT BD2 WT)?
Its IC50 is 15800 nM.

What about the Kd (BRD2: LV/WT) of the same compound?
The Kd was 570 ± 50 nM.

And the IC50 (BRD4 BD1 WT [7])?
Its IC50 is 7940 nM.

And the IC50 (BRDT BD1 L/V)?
Its IC50 is 501 nM.

What about the Kd (BRD3 BD1 L/V [8]) of the same compound?
Its Kd is 80 nM.

And the “ΔH BRD3 BD1 L/V” value (BRD3 BD1 L/V [8]; ITC)?
The value was -14.1 kcal/mol.

What about the IC50 (BRD3 BD1 WT [9]) of the same compound?
The IC50 was 6310 nM.

What about the “ΔH BRD3 BD2 WT” value (BRD3 BD2 WT [10]; ITC) of the same compound?
The value was -3.8 kcal/mol.

What about the “N BRD3 BD2 WT” value (BRD3 BD2 WT [10]; ITC stoichiometry) of the same compound?
The value was 0.85.

And the “AlphaLISA pIC50 ± SD Δ” value [11]?
Its value is 1.7 ± 0.2.

And the IC50 (BRD2 BD2 L/V [12])?
The IC50 was 158 nM.

What about the Papp (in vitro) of the same compound?
The Papp was 15.3 ×10⁻⁶ cm/s.

And the Kd (BRD2: WT/WT)?
Its Kd is 3800 ± 1100 nM.

And the Kd (BRD3 BD2 L/V [13])?
The Kd was 100 nM.

What about the “ΔH BRD3 BD2 L/V” value (BRD3 BD2 L/V [13]; ITC) of the same compound?
Its value is -9.5 kcal/mol.

What about the CL int (Intrinsic Clearance) of the same compound?
Its CL int is 1.5 ml min^–1 g^–1.

What about the Kd (BRD4 BD2 WT) of the same compound?
The Kd was 35000 nM.

What about the “ΔH BRD4 BD2 WT” value (BRD4 BD2 WT; ITC) of the same compound?
Its value is -3.4 kcal/mol.

What about the IC50 (BRD3 BD2 WT [14]) of the same compound?
Its IC50 is 10000 nM.

What about the IC50 (BRD4 BD1 L/V [15]) of the same compound?
Its IC50 is 251 nM.

What about the IC50 (BRDT BD1 WT) of the same compound?
The IC50 was 15800 nM.

And the IC50 (BRD3 BD2 L/V [16])?
Its IC50 is 100 nM.

And the “ΔH BRD4 BD1 L/V” value (BRD4 BD1 L/V [17])?
Its value is -10.3 kcal/mol.

What about the Kd (BRD4 BD1 L/V [17]; Kd BRD4 BD1 L/V, 30°C) of the same compound?
Its Kd is 160 nM.

And the Kd (BRD4 BD1 WT [18])?
Its Kd is 2500 nM.

What about the “ΔH BRD4 BD1 WT” value (BRD4 BD1 WT [18]; ITC) of the same compound?
The value was -2.6 kcal/mol.

And the “N BRD4 BD1 WT” value (BRD4 BD1 WT [18]; ITC stoichiometry)?
The value was 0.99.

What about the IC50 (BRD4 BD2 L/V [19]) of the same compound?
Its IC50 is 251 nM.

What about the IC50 (BRD2 BD2 WT [20]) of the same compound?
Its IC50 is 10000 nM.

What about the Kd (BRD2 BD2 WT [21]) of the same compound?
The Kd was 3300 nM.

And the “ΔH BRD2 BD2 WT” value (BRD2 BD2 WT [21]; ITC)?
The value was -1.2 kcal/mol.

What about the “N BRD2 BD2 WT” value (BRD2 BD2 WT [21]; ITC stoichiometry) of the same compound?
Its value is 0.91.

What about the IC50 (BRD2 BD1 L/V [22]) of the same compound?
The IC50 was 316 nM.

What about the IC50 (BRD3 BD1 L/V [23]) of the same compound?
Its IC50 is 100 nM.

What about the Kd (BRD3 BD1 WT [24]) of the same compound?
The Kd was 3300 nM.

And the “ΔH BRD3 BD1 WT” value (BRD3 BD1 WT [24]; ITC)?
Its value is -4.9 kcal/mol.

What about the “N BRD3 BD1 WT” value (BRD3 BD1 WT [24]; ITC stoichiometry) of the same compound?
The value was 0.81.

Source: PMC5909127, “Optimization of a “bump-and-hole” approach to allele-selective BET bromodomain inhibition” (Chemical Science, 2018)
